The results in this text go back to US12240812B2, “Compound for inhibiting PGE2/EP4 signaling transduction inhibiting, preparation method therefor, and medical uses thereof” (Keythera (Suzhou) Pharmaceuticals Co. Ltd., priority 2019, dated 2025).

Read-outs that look alike come from different tables or passages of the source.

Series [1] in a line: Clearance assay in liver cells. In kind it is in vitro ADME. The settings on record: cryopreserved mouse liver cells (hepatocytes); mouse (ICR/CD-1, male) cryopreserved liver cells, 0-120 min. The procedure:
• Liver cell type: mouse • Product catalog: M00505 • Species: ICR/CD-1 • Sex: male • Source: BioreoclmationIVT Procedures: • 1. Preparation of working solution • a. 10 mM stock solutions of test compound and positive control were prepared in an appropriate solvent (DMSO). • b. 198 μL of 50% acetonitrile/50% water and 2 μL of 10 mM solution were mixed in a separate conical tube to obtain 100 μM test compound and positive control. • 2. Preparation of liver cells • a. The incubation medium and liver cell thawing medium were placed in a 37° C. water bath, and heated for at least 15 minutes before use. • b. A vial of cryopreserved liver cells was transferred from the storage, ensuring that the vial was kept at a low temperature until the thawing process was conducted. The cells were thawed by placing the vial in a 37° C. water bath and gently shaking the vial for 2 minutes. After completion of the thawing, the vial was sprayed with 70% ethanol and transferred to a biological safety cabinet. • c. The liver cells were transferred to a 50 mL conical tube containing the thawing medium by a large-bore pipette tip. The 50 mL conical tube was placed in a centrifuge and centrifuged at 100 g for 10 minutes. After completion of the centrifugation, the thawing medium was sucked out, and the liver cells were resuspended in enough medium to produce 1.5×10^6 cells/mL. • 3. Procedures of stability assay • a. 198 μL of liver cells were pipetted into each well of a 96-well uncoated plate. The plate was placed in an incubator to warm up the liver cells for 10 minutes. • b. 2 μL of 100 μM test compound or positive control was pipetted into each well of the 96-well uncoated plate to start the reaction. The plate was placed into the incubator at the set time point. • c. The contents of the wells were transferred in 25 μL of aliquots at the time points of 0, 15, 30, 60, 90 and 120 minutes. The aliquot was mixed with 6 volumes (150 μL) of acetonitrile containing internal standard IS (100 nM alprazolam, 200 nM caffeine, and 100 nM tolbutamide) to stop the reaction. The sample was vortex-mixed for 5 minutes, and centrifuged at 3220 g for 45 minutes. An aliquot of 100 μL of supernatant was diluted with 100 μL of ultrapure water, and the mixture was used for LC/MS/MS analysis. All incubations were performed in duplicate. • d. Data analysis
All calculations were performed using Microsoft Excel. The peak area was determined by the extracted ion chromatogram. The in vitro half-life (t½) of the parent compound was determined by the regression analysis of the compound disappearance percentage versus time curve.
The in vitro half-life (t½) was determined by the slope value k: t½=0.693/k
The in vitro t½ (in minutes) was converted to in vitro intrinsic clearance (CLint, in μL/min/0.5×10^6 cells) by using the following equation (average of repeated determinations): […]

Series [2] has as its system PGE2/EP4 signal transduction in MCF7 cells. The series is described as follows: Determination of MCF7 cAMP (PGE2-stimulated, HTRF). The settings on record: Homo sapiens. In kind it is cell-based. The protocol:
• a) MCF7 cells (ATCC, 6000 cells/well/40 μl) were inoculated into a 384-well cell culture plate containing a medium (DMEM containing 10% FBS and 1×PS), and incubated overnight at 37° C. and 5% CO2. • b) The medium was removed, 40 μl/well of serum-free medium was added, and the cells were incubated at 37° C. and 5% CO2 for 5 hours. • c) The medium was replaced with 18 μL/well of HBSS buffer (Hepes 20 mM, 0.1% BSA, 500 μM IBMX). • d) The compound in DMSO was diluted (1/5 dilution, 9+0 dose). • e) 2 μL of the compound in d) was added to 98 μL of HBSS buffer. • f) 1 μL/well of the diluted compound in e) was added to the cells, with a final starting concentration of 1 μM, and the cells were incubated at 37° C. for 1 hour. • g) The cells were stimulated with 1 μL/well of PGE2 (10 mM DMSO stock solution) (final concentration: 10 nM, and DMSO final concentration: 0.2%), and incubated at 37° C. for 30 minutes. • h) After the incubation, 10 μL/well of cAMP-d2 and 10 μL/well of anti-cAMP were added, RT 1 h. • i) HTRF signals (665 nm/615 nm) were read on Envision. Data Analysis: • High control: 1 μM E7046 • Low control: DMSO • Background: 30 μL/well of lysis buffer+10 μL/well of anti-cAMP • Analytical data: original date—background Inhibition %: 100−100×(high control−analytical data)/(high control−low control)

Series [3] relates to CT-26 colorectal tumor. Description: Inhibitory effect of compound 6 on CT-26 colorectal tumor in mouse. The class given is in vivo. The protocol: Efficacy study on allograft tumor: each 6-week-old female BALB/c mouse was subcutaneously inoculated with 1×10^6 CT26 cancer cells (National Experimental Cell Resource Sharing Service Platform, Resource Number 3111CCCC). When the tumor reached about 60 to 80 mm^3, the tumor-bearing mice were randomly grouped to the vehicle group or treatment group. Compound 6 was administered orally (p.o.) in a 0.5% MC suspension at a dose of 10, 30 or 150 mg/kg, once a day. The mice in the vehicle group were orally administered with distilled water every day, and the administration time was the same as that of the compound 6 group. The tumor volume and body weight were recorded 2 to 3 times a week.

Setting [4] is: MCF7 cells, 10 nM PGE2 stimulation, cAMP HTRF, read-out: MCF7 cAMP IC50.

Regarding `O=C(NC1(C23CC(C(=O)O)(C2)C3)CC1)c1cccc2ccn(Cc3ccc(C(F)(F)F)cc3)c12` [Compound 1, 3-(1-(1-(4-(Trifluoromethyl)benzyl)-1H-indole-7-carboxamido)cyclopropyl)bicyclo[1.1.1]pentane-1-carboxylic acid], the intrinsic metabolic clearance (hepatocyte CLint) (commonly the rate of metabolic loss divided by the concentration) at 1 µM in series [1] stood at 7.1 µL/min/1e6 cells. Besides, in series [2] (setting [4]), the half-inhibitory concentration (IC50) (commonly the point on the concentration scale where inhibition reaches its midpoint) came to 2.4 nM.
For the compound `O=C(NC1(C23CC(C(=O)O)(C2)C3)CC1)c1cccc2ccn(Cc3ccc(-c4ccccc4)cn3)c12` [Compound 2, 3-(1-(1-((5-Phenylpyridin-2-yl)methyl)-1H-indole-7-carboxamido)cyclopropyl)bicyclo[1.1.1]pentane-1-carboxylic acid], the hepatocyte CLint at 1 µM in series [1] turned out to be 19 µL/min/1e6 cells. In series [2] (setting [4]), the half-inhibitory concentration (IC50) amounted to 0.89 nM.
Regarding `O=C(NC1(C23CC(C(=O)O)(C2)C3)CC1)c1cc(Cl)cc2ccn(Cc3ccc(-c4ccccc4)cn3)c12` [Compound 7, 3-(1-(5-Chloro-1-((5-phenylpyridin-2-yl)methyl)-1H-indole-7-carboxamido)cyclopropyl)bicyclo[1.1.1]pentane-1-carboxylic acid], in series [1], the hepatocyte CLint at 1 µM is 34 µL/min/1e6 cells. Further, the half-maximal inhibitory concentration (IC50) in series [2] (setting [4]) came to 0.13 nM.
Consider `O=C(NC1(C23CCC(C(=O)O)(CC2)CC3)CC1)c1cccc2ccn(Cc3ccc(C(F)(F)F)cc3)c12` [Compound 9, 4-(1-(1-(4-(Trifluoromethyl)benzyl)-1H-indole-7-carboxamido)cyclopropyl)bicyclo[2.2.2]octane-1-carboxylic acid], for which the intrinsic clearance (hepatocyte CLint) at 1 µM in series [1] turned out to be 20 µL/min/1e6 cells. In addition, the IC50 in series [2] (setting [4]) was 1.1 nM.
`O=C(NC1(C23CC(C(=O)O)(C2)C3)CC1)c1cccc2ccn(Cc3cc4cc(F)ccc4o3)c12` [Compound 21, 3-(1-(1-((5-Fluorobenzofuran-2-yl)methyl)-1H-indole-7-carboxamido)cyclopropyl)bicyclo[1.1.1]pentane-1-carboxylic acid] gave a hepatocyte CLint at 1 µM in series [1] of 1.93 µL/min/1e6 cells. Also, the concentration for half-maximal inhibition (IC50) in series [2] (setting [4]) worked out at 0.9 nM.
As to `O=C(NC1(C23CC(C(=O)O)(C2)C3)CC1)c1cncc2ccn(Cc3cc4ccccc4o3)c12` [Compound 25, 3-(1-(1-(benzofuran-2-ylmethyl)-1H-pyrrolo[3,2-c]pyridine-7-carboxamido)cyclopropyl)bicyclo[1.1.1]pentane-1-carboxylic acid], the hepatocyte CLint at 1 µM in series [1] is 1.35 µL/min/1e6 cells. Moreover, in series [2] (setting [4]), the IC50 amounted to 1.5 nM.
With `[2H]C([2H])(c1cc2ccccc2o1)n1ccc2cccc(C(=O)NC3(C45CC(C(=O)O)(C4)C5)CC3)c21` [Compound 30, 3-(1-(1-(1-Benzofuran-2-ylmethyl-d2)-1H-indole-7-carboxamido)cyclopropyl)bicyclo[1.1.1]pentane-1-carboxylic acid], the IC50 in series [2] (setting [4]) is 1.1 nM.
Turning to `[2H]C1([2H])C([2H])([2H])C1(NC(=O)c1cccc2ccn(Cc3cc4ccccc4o3)c12)C12CC(C(=O)O)(C1)C2` [Compound 31], the concentration for half-maximal inhibition (IC50) in series [2] (setting [4]) was found to be 1.2 nM.
Still for that read-out and setting: with `O=C(NC1(C23CC(C(=O)O)(C2)C3)CC1)c1cc(F)cc2ccn(Cc3cc4ccccc4o3)c12` [Compound 32] the figure was 0.75 nM.
For the compound `C[C@H](NC(=O)c1c(C(F)F)nn(C)c1Oc1cccc(C(F)(F)F)c1)c1ccc(C(=O)O)cc1` [Compound E7046, (S)-4-(1-(3-(difluoromethyl)-1-methyl-5-(3-(trifluoromethyl)phenoxy)-1H-pyrazole-4-carboxamido)ethyl)benzoic acid, reference compound], in series [1], the intrinsic metabolic clearance (hepatocyte CLint) at 1 µM was 20.1 µL/min/1e6 cells. For the same compound, the half-inhibitory concentration (IC50) in series [2] (MCF7, read-out: MCF7 cAMP IC50) is 11.2 nM. Also, the “effect on the growth of CT-26 tumor” value in series [3] (BALB/c mice, CT26 allograft, administered alone, different doses (compound 6: 10, 30 or 150 mg/kg p.o. once a day), FIG. 1) is recorded as “significant inhibitory effect”. In series [3] (CT-26 colorectal cancer model, FIG. 2), the “effect on the body weight of mouse” value is “no significant effect”.
Consider `O=C(O)c1ccc(C2(NC(=O)c3cccc4ccn(Cc5ccc(C(F)(F)F)cc5)c34)CC2)cc1` [MF-766, 4-(1-(1-(4-(trifluoromethyl)benzyl)-1H-indole-7-carboxamido)cyclopropyl)benzoic acid, reference compound], for which the hepatocyte CLint at 1 µM in series [1] turned out to be 12.5 µL/min/1e6 cells. Further, the IC50 in series [2] (MCF7, read-out: MCF7 cAMP IC50) was determined as 1.3 nM.
